These results are taken from BindingDB's records for PubMed 34889100 (University of Health Sciences and Pharmacy, 2021).

The assay addresses Bile acid receptor NR1H4 (Homo sapiens) (UniProt Q96RI1). As to the kind of experiment: Agonist activity at FXR in human HepG2 cells.

Bile acid receptor NR1H4 (Homo sapiens), sequence (Q96RI1 whole entry, looked up): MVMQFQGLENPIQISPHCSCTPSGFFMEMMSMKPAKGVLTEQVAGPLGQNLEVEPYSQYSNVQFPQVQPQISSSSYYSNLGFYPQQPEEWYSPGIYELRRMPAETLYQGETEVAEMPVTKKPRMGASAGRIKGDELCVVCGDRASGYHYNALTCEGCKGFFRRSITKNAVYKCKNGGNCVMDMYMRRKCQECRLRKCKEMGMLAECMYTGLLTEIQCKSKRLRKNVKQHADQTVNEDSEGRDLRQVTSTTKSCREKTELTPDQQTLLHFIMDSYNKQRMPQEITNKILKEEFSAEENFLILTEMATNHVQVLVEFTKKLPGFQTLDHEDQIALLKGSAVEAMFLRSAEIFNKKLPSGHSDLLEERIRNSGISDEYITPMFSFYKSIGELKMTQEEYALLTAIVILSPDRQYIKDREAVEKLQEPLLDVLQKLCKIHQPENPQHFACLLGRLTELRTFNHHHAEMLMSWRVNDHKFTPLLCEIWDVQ

The EC50 is the midpoint of the concentration-response curve. A higher EC50 goes with a need for much substance. As for `O=C(O)c1ccc([C@@H]2C[C@H]2c2ccc(OCc3c(-c4c(Cl)cccc4Cl)noc3C3CC3)cc2Cl)cc1`, the EC50 came to 750 pM.
The figure for `O=C(O)c1cc(F)c2nc(N3C[C@@H]4C[C@H]3C[C@H]4OCc3c(-c4ccccc4OC(F)(F)F)noc3C3CC3)sc2c1` is 350 pM.
